From the supplement of paper PMC8967900

Tests used:
Experiment in all cases: selective drug sensitivity score (sDSS, relative to normal bone marrow) (sDSS (score)); higher = more potent and effective on the cell line relative to normal bone marrow cells
Details in all cases: 72 h
SEM cells = test system: SEM cells
CCRF-CEM = test system: CCRF-CEM
ALL-SIL = test system: ALL-SIL
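Further: ALL cell lines in 384-well plates, five doses spanning 10,000-fold, each plate scaled between vehicle and 100 µmol/L benzalkonium chloride controls, sDSS an adapted area-under-curve metric.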

Row | Structure (SMILES) | selective drug sensitivity score (SEM cells) | selective drug sensitivity score (CCRF-CEM) | selective drug sensitivity score (ALL-SIL)
1 | CCn1cc(-c2ccnc3[nH]c(-c4cccc(CN(C)C)c4)cc23)c(-c2ccc(NC(=O)N(C)C)cc2)n1 (top concentration 1000 nM) | 17.9 | 18 | 21.3
2 | CC(C)(C)C[C@@H]1N[C@@H](C(=O)N[C@H]2CC[C@H](O)CC2)[C@H](c2cccc(Cl)c2F)[C@]12C(=O)Nc1cc(Cl)ccc12 (top concentration 10000 nM) | -1.94 | -3.94 | -3.34
3 | Cc1c(Cn2c(C)nc3c(C(=O)O)cc(N4CCOCC4)cc32)cccc1C(F)(F)F (top concentration 10000 nM) | 0.58 | 0.38 | -0.02
4 | Nc1ncnc2c1c(COc1cccc(Cl)c1)nn2C1CCOCC1 (top concentration 10000 nM) | -0.64 | -0.44 | -0.64
5 | Cn1cc(C[C@@H](N)C(=O)O)c2ccccc21 [1-methyl-D-tryptophan] (top concentration 5000 nM) | -0.32 | -0.62 | -0.62
6 | COc1cc2c(cc1OCCCN1CCCC1)N=C(N)C21CCC1 [A-366] (top concentration 25000 nM) | 0.46 | 2.16 | -0.34
7 | COCCOc1cnc2ccn([C@H](C)c3nnc4c(F)cc(-c5cnn(C)c5)cn34)c(=O)c2c1 [AMG-337] (top concentration 10000 nM) | -0.06 | -0.06 | -0.06
8 | COc1cc(N2CCC(N3CCN(C)CC3)CC2)ccc1Nc1ncnc(Nc2ccccc2S(=O)(=O)C(C)C)n1 [ASP3026] (top concentration 10000 nM) | 1.66 | -0.14 | 0.16
9 | CN[C@@H](C)C(=O)N[C@H]1CN(C(=O)CC(C)C)CC[C@H]2CC[C@@H](C(=O)NC(c3ccccc3)c3ccccc3)N2C1=O [AT-406] (top concentration 10000 nM) | -1.26 | 1.34 | -1.26
10 | COc1cc2ncnc(Nc3cccc(Cl)c3F)c2cc1OC(=O)N1CCN(C)C[C@H]1C [AZD3759] (top concentration 1000 nM) | -0.04 | -0.04 | 5.76
11 | C[C@]12CC[C@H](O)CC1=CC[C@@H]1[C@@H]2CC[C@]2(C)C(c3cccnc3)=CC[C@@H]12 [Abiraterone] (top concentration 5000 nM) | -0.12 | -0.12 | -0.12
12 | CC#CC(=O)N1CCC[C@H]1c1nc(-c2ccc(C(=O)Nc3ccccn3)cc2)c2c(N)nccn12 [Acalabrutinib] (top concentration 1000 nM) | 3.2 | 0.8 | -0.1
13 | CCc1cc2c(cc1N1CCC(N3CCOCC3)CC1)C(C)(C)c1[nH]c3cc(C#N)ccc3c1C2=O [Alectinib] (top concentration 1000 nM) | 0.58 | 0.18 | -0.22
14 | Oc1ncnc2[nH]ncc12 [Allopurinol] (top concentration 10000 nM) | -0.54 | -0.24 | -0.14
15 | COc1cc(NS(C)(=O)=O)ccc1Nc1c2ccccc2nc2ccccc12 [Amsacrine] (top concentration 10000 nM) | 12.8 | 15.1 | 10.2
16 | O=C1CN2Cc3c(ccc(Cl)c3Cl)N=C2N1 [Anagrelide] (top concentration 10000 nM) | 0 | 0 | 2.8
17 | N#CC(c1ccnc(OCc2ccc(CN3CCOCC3)cc2)n1)c1nc2ccccc2s1 (centres undefined) [Bentamapimod] (top concentration 10000 nM) | 3.24 | 3.94 | 2.34
18 | CCNC(=O)CCC/C=C\C[C@@H]1[C@@H](/C=C/[C@@H](O)CCc2ccccc2)[C@H](O)C[C@@H]1O [Bimatoprost] (top concentration 5500 nM) | 0 | 0 | 0
